The values below come from patent US12459951B2, “Compounds that interact with RAS superfamily proteins for treatment of cancers, inflammatory diseases, rasopathies, and fibrotic disease” (SHY Therapeutics, LLC, priority 2022, dated 2025).

The subject of assay [1] is Smad2/Smad3 phosphorylation. The assay can be described thus: Phospho-Smad2/3 Inhibition Assay (western blot), Panc-1. It is filed as cell-based, human. The following applies: at 10 μM, Panc-1 pancreatic cancer cell line; starred symbols = activation. The essentials:
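Western blotting of lysates (15-50 μg protein) read phosphorylation of Smad2 Ser465/467 and Smad3 Ser423/425. Before lysis, Panc-1 cells got 1 h of 10 ng/ml TGF-b1 following 3 h compound exposure at 37° C (10 μM final, or serial dilutions for IC50, 0.3% DMSO) after overnight 0.5% FBS starvation.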
For orientation: In western blotting, separated proteins are transferred to a membrane and probed.

Assay [2] deals with TNF-alpha. The assay can be described thus: TNF-alpha Quantification Assay (ELISA), LPS-stimulated RAW 264.7. The following applies: Mus musculus, RAW264.7; at 10 μM; read-out: TNFα: % inh. It is filed as cell-based. (In general: ELISA stands for enzyme-linked immunosorbent assay.)
Assay [3] relates to MiaPaca-2 (expressing KRAS G12C mutant). Briefly: Proliferation Assay (Cell Viability Assay). The format is cell-based. The following applies: Homo sapiens, MIA PaCa-2. In short, it runs like this: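 After 2–4 days' exposure at 37 °C, 5% CO2 to a single 10 μM final concentration or a dilution series (IC50), percent proliferation inhibition was derived from CellTiter 96 Aqueous One viability readings. The medium contained 0.3% DMSO and 10% FBS. KRAS G12C MiaPaca-2 cells were plated at 2000–5000/well the day before.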

The mark [4] stands for this setting: read-out: Proliferation in MiaPaca-2: IC50.

The structures appear in SMILES notation. Structures can show the parent of a compound that is named as a salt. Where two headings read alike, the source gives them in different places.

As for `Cc1c(-c2ccn(C(C)C)n2)cn2nc(-c3nccn3C)nc(Nc3cc(OCCN(C)C)ncn3)c12` [Compound 123, N-(6-(2-(Dimethylamino)ethoxy)pyrimidin-4-yl)-6-(1-isopropyl-1H-pyrazol-3-yl)-5-methyl-2-(1-methyl-1H-imidazol-2-yl)pyrrolo[2,1-f][1,2,4]triazin-4-amine], the “% inh of Smad2/3 phosphorylation in Panc-1” value (shortened to “% inh”) in assay [1] was “B (B = 26-45% inhibition)”. In assay [2], the inhibition at 10 µM lay in the range of 25 to 49%. Besides, in assay [3] (setting [4]), the IC50 was less than 150 nM.

With `COc1ccnc(Nc2nc(-c3nccn3C)nn3cc(-c4ccn(C)n4)c(C)c23)c1` [Compound 102, N-(4-Methoxypyridin-2-yl)-5-methyl-2-(1-methyl-1H-imidazol-2-yl)-6-(1-methyl-1H-pyrazol-3-yl)pyrrolo[2,1-f][1,2,4]triazin-4-amine], in assay [1], the “% inh” value was “A* (A* = 1-25% activation)”. Besides, in assay [2], the inhibition at 10 µM lay in the range of 25 to 49%. Also, the IC50 is 1 to 10 nM in assay [3] (Proliferation assay, MiaPaca-2, read-out: MiaPaca-2 IC50 (nM) Pancreatic) and less than 150 nM in assay [3] (setting [4]).

On to `Cc1c(-c2ccn(C)n2)cn2nc(-c3nccn3C)nc(Nc3nccn3C)c12` [Compound 106, 5-Methyl-N,2-bis(1-methyl-1H-imidazol-2-yl)-6-(1-methyl-1H-pyrazol-3-yl)pyrrolo[2,1-f][1,2,4]triazin-4-amine], for which the “% inh” value in assay [1] is recorded as “D* (D* = 76-100% activation)”. In assay [2], the inhibition at 10 µM worked out at 0%. In addition, the IC50 in assay [3] (setting [4]) is less than 150 nM.

As to `Cc1c(-c2ccn(C3CC3)n2)cn2nc(-c3nccn3C)nc(Nc3cc(OCCO)ccn3)c12` [Compound 146, 2-((2-((6-(1-Cyclopropyl-1H-pyrazol-3-yl)-5-methyl-2-(1-methyl-1H-imidazol-2-yl)pyrrolo[2,1-f][1,2,4]triazin-4-yl)amino)pyridin-4-yl)oxy)ethan-1-ol], the “% inh” value in assay [1] is given as “C (C = 46-75% inhibition)”. Besides, the inhibition at 10 µM in assay [2] lay in the range of 1 to 24%. Besides, in assay [3] (setting [4]), the IC50 lay within 150 to 500 nM.

In the case of `Cc1c(-c2ccn(C3CC3)n2)cn2nc(-c3nccn3C)nc(Nc3cc(OC(F)(F)F)ccn3)c12` [Compound 138, 6-(1-Cyclopropyl-1H-pyrazol-3-yl)-5-methyl-2-(1-methyl-1H-imidazol-2-yl)-N-(4-(trifluoromethoxy)pyridin-2-yl)pyrrolo[2,1-f][1,2,4]triazin-4-amine], in assay [1], the “% inh” value is “A* (A* = 1-25% activation)”. In assay [2], the inhibition at 10 µM turned out to be 0%. For the same compound, the IC50 in assay [3] (setting [4]) is less than 150 nM.

For `CO[C@@H]1CC[C@@H](Nc2nc(-c3nccn3C)nn3cc(-c4ccn(C)n4)c(C)c23)C1` (racemic) [Compound 132, rac N-((1R,3R)-3-Methoxycyclopentyl)-5-methyl-2-(1-methyl-1H-imidazol-2-yl)-6-(1-methyl-1H-pyrazol-3-yl)pyrrolo[2,1-f][1,2,4]triazin-4-amine], the “% inh” value in assay [1] is “A* (A* = 1-25% activation)”. For the same compound, in assay [2], the inhibition at 10 µM is 0%. The IC50 in assay [3] (setting [4]) was more than 1000 nM.

Regarding `CCc1nc(Nc2nc(-c3nccn3C)nn3cc(-c4ccn(C)n4)c(C)c23)nn1C` [Compound 108, N-(5-Ethyl-1-methyl-1H-1,2,4-triazol-3-yl)-5-methyl-2-(1-methyl-1H-imidazol-2-yl)-6-(1-methyl-1H-pyrazol-3-yl)pyrrolo[2,1-f][1,2,4]triazin-4-amine], the “% inh” value in assay [1] is on record as “D* (D* = 76-100% activation)”. Further, the inhibition at 10 µM in assay [2] worked out at 0%. Further, the IC50 in assay [3] (setting [4]) fell in the range of 510 to 1000 nM.

As to `CO[C@H]1C[C@H](Nc2nc(-c3nccn3C)nn3cc(-c4cccnc4)c(C)c23)C1` [Compound 151, N-((1r,3r)-3-Methoxycyclobutyl)-5-methyl-2-(1-methyl-1H-imidazol-2-yl)-6-(pyridin-3-yl)pyrrolo[2,1-f][1,2,4]triazin-4-amine], in assay [1], the “% inh” value is “A (A = 1-25% inhibition)”. For the same compound, the inhibition at 10 µM in assay [2] was determined as 0%. Moreover, the IC50 in assay [3] (setting [4]) is more than 1000 nM.

Consider `CO[C@H]1C[C@H](Nc2nc(-c3nccn3C)nn3cc(-c4ccn(C)n4)c(C)c23)C1` [Compound 103, N-((1r,3r)-3-Methoxycyclobutyl)-5-methyl-2-(1-methyl-1H-imidazol-2-yl)-6-(1-methyl-1H-pyrazol-3-yl)pyrrolo[2,1-f][1,2,4]triazin-4-amine hydrochloride salt], for which the “% inh” value in assay [1] is on record as “C* (C* = 46-75% activation)”. The inhibition at 10 µM in assay [2] stood at 0%. Further, in assay [3] (setting [4]), the IC50 was more than 1000 nM.

`Cc1c(-c2ccn(C3CC3)n2)cn2nc(-c3nccn3C)nc(Nc3cc(O)ccn3)c12` [Compound 150, 2-((6-(1-Cyclopropyl-1H-pyrazol-3-yl)-5-methyl-2-(1-methyl-1H-imidazol-2-yl)pyrrolo[2,1-f][1,2,4]triazin-4-yl)amino)pyridin-4-ol]: the “% inh” value in assay [1] is recorded as “A (A = 1-25% inhibition)”. Further, the inhibition at 10 µM in assay [2] is 0%. In assay [3] (setting [4]), the IC50 was more than 1000 nM.

Consider `Cc1c(-c2ccn(C)n2)cn2nc(-c3nccn3C)nc(Nc3cc(OC4CC4)ccn3)c12` [Compound 126, N-(4-Cyclopropoxypyridin-2-yl)-5-methyl-2-(1-methyl-1H-imidazol-2-yl)-6-(1-methyl-1H-pyrazol-3-yl)pyrrolo[2,1-f][1,2,4]triazin-4-amine], for which, in assay [1], the “% inh” value is reported as “A* (A* = 1-25% activation)”. Further, the inhibition at 10 µM in assay [2] came out at 0%. The IC50 in assay [3] (setting [4]) is less than 150 nM.

With `CO[C@H]1C[C@@H](Nc2nc(-c3nccn3C)nn3cc(-c4ccn(C)n4)c(C)c23)C1` [Compound 131, N-((1s,3s)-3-Methoxycyclobutyl)-5-methyl-2-(1-methyl-1H-imidazol-2-yl)-6-(1-methyl-1H-pyrazol-3-yl)pyrrolo[2,1-f][1,2,4]triazin-4-amine], in assay [1], the “% inh” value is on record as 0 (0 = 0% inhibition). Moreover, the inhibition at 10 µM in assay [2] was in the range of 1 to 24%. Moreover, the IC50 in assay [3] (setting [4]) was more than 1000 nM.

Turning to `COc1cc(-c2cn3nc(-c4nccn4C)nc(N[C@@H]4CC[C@H](OC)C4)c3c2C)ccn1` (racemic) [Compound 164, rac N-((1R,3S)-3-Methoxycyclopentyl)-6-(2-methoxypyridin-4-yl)-5-methyl-2-(1-methyl-1H-imidazol-2-yl)pyrrolo[2,1-f][1,2,4]triazin-4-amine], the “% inh” value in assay [1] was “A* (A* = 1-25% activation)”. In addition, the inhibition at 10 µM in assay [2] was in the range of 1 to 24%. For the same compound, the IC50 in assay [3] (setting [4]) was more than 1000 nM.

Consider `COc1cnc(Nc2nc(-c3nccn3C)nn3cc(-c4ccn(C)n4)c(C)c23)cn1` [Compound 110, N-(5-Methoxypyrazin-2-yl)-5-methyl-2-(1-methyl-1H-imidazol-2-yl)-6-(1-methyl-1H-pyrazol-3-yl)pyrrolo[2,1-f][1,2,4]triazin-4-amine], for which the “% inh” value in assay [1] is “A* (A* = 1-25% activation)”. Further, in assay [2], the inhibition at 10 µM was in the range of 1 to 24%. Moreover, in assay [3] (setting [4]), the IC50 was less than 150 nM.

Regarding `Cc1c(-c2ccn(C(C)C)n2)cn2nc(-c3nccn3C)nc(Nc3nccc(OCCN(C)C)n3)c12` [Compound 96, N-(4-(2-(Dimethylamino)ethoxy)pyrimidin-2-yl)-6-(1-isopropyl-1H-pyrazol-3-yl)-5-methyl-2-(1-methyl-1H-imidazol-2-yl)pyrrolo[2,1-f][1,2,4]triazin-4-amine], the “% inh” value in assay [1] is given as “D (D = 76-100% inhibition)”. In addition, the inhibition at 10 µM in assay [2] amounted to 0%. Further, in assay [3] (setting [4]), the IC50 lay within 150 to 500 nM.

As to `COc1ccnc(Nc2nc(-c3nccn3C)nn3cc(-c4cnn(C(C)C)c4)c(C)c23)c1` [Compound 165, 6-(1-Isopropyl-1H-pyrazol-4-yl)-N-(4-methoxypyridin-2-yl)-5-methyl-2-(1-methyl-1H-imidazol-2-yl)pyrrolo[2,1-f][1,2,4]triazin-4-amine], the “% inh” value in assay [1] was “B* (B* = 26-45% activation)”. Also, the inhibition at 10 µM in assay [2] lay within 1 to 24%. The IC50 in assay [3] (setting [4]) is less than 150 nM.

On to `COc1ccnc(Nc2nc(-c3nccn3C)nn3cc(-c4cccnc4)c(C)c23)c1` [Compound 157, N-(4-Methoxy-pyridin-2-yl)-5-methyl-2-(1-methyl-1H-imidazol-2-yl)-6-(pyridin-3-yl)pyrrolo[2,1-f][1,2,4]triazin-4-amine], for which the “% inh” value in assay [1] was “B* (B* = 26-45% activation)”. In addition, the inhibition at 10 µM in assay [2] is 0%. Besides, in assay [3] (setting [4]), the IC50 was less than 150 nM.

For the compound `COc1ccnc(Nc2nc(-c3nccn3C)nn3cc(-c4cccnc4)c(-c4cccnc4)c23)c1` [Compound 169, N-(4-methoxypyridin-2-yl)-2-(1-methyl-1H-imidazol-2-yl)-5,6-di(pyridin-3-yl)pyrrolo[2,1-f][1,2,4]triazin-4-amine], the “% inh” value in assay [1] is “C (C = 46-75% inhibition)”. Besides, the inhibition at 10 µM in assay [2] was 0%. Besides, in assay [3] (setting [4]), the IC50 was less than 150 nM.

For the compound `Cc1c(-c2ccn(C(C)C)n2)cn2nc(-c3ccccn3)nc(O)c12` [Compound 8, 6-(1-Isopropyl-1H-pyrazol-3-yl)-5-methyl-2-(pyridin-2-yl)pyrrolo[2,1-f][1,2,4]triazin-4-ol], the “% inh” value in assay [1] is listed as 0 (0 = 0% inhibition). For the same compound, in assay [2], the inhibition at 10 µM stood at 0%. Besides, the IC50 in assay [3] (setting [4]) was more than 1000 nM.
